According to patent US10632095B2 (Zoetis Services LLC, priority 2013, dated 2020):
Where two headings read alike, the source gives them in different places.

Tests used:
[1] = target: swine COX-2 (Sus scrofa, UniProt Q8SPR3); test: Porcine alveolar macrophage COX inhibitor assay (PGE2 read-out); assay type: cell-based; details: for IC90: read-out: COX-2 IC90
Experimental: (§1) Alveolar macrophages were treated with a lipopolysaccharide (LPS), in the presence of varying amounts of inhibitors, to produce thromboxane B2 (TXB2) and/or prostaglandin E2 (PGE2). […] Each drug was tested in three different experiments on three different days (at a minimum).

[2] = target: swine COX-1 (Sus scrofa, UniProt A0A287ANF9); test: Porcine alveolar macrophage COX inhibitor assay (TXB2 read-out); assay type: cell-based; details: for IC90: read-out: COX-1 IC90
Sequence of swine COX-1 (A0A287ANF9 25-600): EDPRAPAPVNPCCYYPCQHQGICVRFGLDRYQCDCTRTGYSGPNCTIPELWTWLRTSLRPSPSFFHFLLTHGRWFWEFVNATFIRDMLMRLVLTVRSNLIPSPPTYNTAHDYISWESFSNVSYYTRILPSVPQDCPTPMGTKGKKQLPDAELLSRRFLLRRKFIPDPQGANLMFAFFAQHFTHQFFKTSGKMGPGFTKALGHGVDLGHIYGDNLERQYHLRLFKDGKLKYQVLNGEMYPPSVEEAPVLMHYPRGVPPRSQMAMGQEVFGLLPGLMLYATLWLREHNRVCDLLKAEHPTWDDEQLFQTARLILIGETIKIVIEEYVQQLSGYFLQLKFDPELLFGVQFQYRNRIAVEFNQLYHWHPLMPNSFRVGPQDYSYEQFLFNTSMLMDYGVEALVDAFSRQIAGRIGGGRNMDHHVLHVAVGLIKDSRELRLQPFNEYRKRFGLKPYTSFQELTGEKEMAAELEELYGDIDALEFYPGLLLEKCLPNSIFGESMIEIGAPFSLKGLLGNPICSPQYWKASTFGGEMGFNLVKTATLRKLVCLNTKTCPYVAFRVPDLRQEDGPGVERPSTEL
Experimental: as §1

[3] = target: T1, bovine COX-1 (Bos taurus, UniProt O62664); test: Bovine in vitro whole blood COX inhibitor assay (TXB2); assay type: cell-based
T1 construct: using a bovine whole blood assay; from tissue; host or cells: heparinized bovine whole blood, protamine-treated to induce clotting
T1 sequence (O62664 25-600): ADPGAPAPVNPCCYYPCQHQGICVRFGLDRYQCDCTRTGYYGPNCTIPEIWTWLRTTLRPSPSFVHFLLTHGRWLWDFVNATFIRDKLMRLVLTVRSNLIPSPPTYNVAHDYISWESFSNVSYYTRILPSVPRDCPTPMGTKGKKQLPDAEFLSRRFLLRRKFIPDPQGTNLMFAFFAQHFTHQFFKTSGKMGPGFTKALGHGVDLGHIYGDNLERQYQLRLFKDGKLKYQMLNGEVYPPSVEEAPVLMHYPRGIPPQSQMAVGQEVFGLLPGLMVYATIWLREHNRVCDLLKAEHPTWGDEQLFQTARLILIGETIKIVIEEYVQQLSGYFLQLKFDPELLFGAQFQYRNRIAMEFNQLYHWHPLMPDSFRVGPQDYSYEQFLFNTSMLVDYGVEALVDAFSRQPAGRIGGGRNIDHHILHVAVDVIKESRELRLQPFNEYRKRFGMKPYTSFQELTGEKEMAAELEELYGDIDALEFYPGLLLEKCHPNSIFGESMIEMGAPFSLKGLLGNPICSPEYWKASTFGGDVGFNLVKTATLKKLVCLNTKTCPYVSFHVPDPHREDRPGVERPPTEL
Experimental: (§2) Briefly, heparinized blood was collected for both assays. The COX-1 assay involved treatment of the blood with protamine; to reverse the anti-coagulation effects of heparin; thus, inducing clotting and production of Thromboxane B2 (TXB2). The COX-2 assay involved treatment of blood with LPS to produce PGE2. Both assays included the presence of varying amounts of inhibitors, to inhibit the TXB2 or PGE2. […] Percent inhibition was calculated from the raw data for each drug dose based on the mean of the TXB2 or PGE2 concentrations. Then the mean % inhibition curves (% inhibition versus drug concentration) were analyzed via non-linear regression to yield individual IC50 and IC90 values.

[4] = target: T2, bovine COX-2 (Bos taurus, UniProt O62698); test: Bovine in vitro whole blood COX inhibitor assay (PGE2); assay type: cell-based
T2 construct: using a bovine whole blood assay; from tissue; host or cells: heparinized bovine whole blood, LPS-treated
T2 sequence (O62698 18-604): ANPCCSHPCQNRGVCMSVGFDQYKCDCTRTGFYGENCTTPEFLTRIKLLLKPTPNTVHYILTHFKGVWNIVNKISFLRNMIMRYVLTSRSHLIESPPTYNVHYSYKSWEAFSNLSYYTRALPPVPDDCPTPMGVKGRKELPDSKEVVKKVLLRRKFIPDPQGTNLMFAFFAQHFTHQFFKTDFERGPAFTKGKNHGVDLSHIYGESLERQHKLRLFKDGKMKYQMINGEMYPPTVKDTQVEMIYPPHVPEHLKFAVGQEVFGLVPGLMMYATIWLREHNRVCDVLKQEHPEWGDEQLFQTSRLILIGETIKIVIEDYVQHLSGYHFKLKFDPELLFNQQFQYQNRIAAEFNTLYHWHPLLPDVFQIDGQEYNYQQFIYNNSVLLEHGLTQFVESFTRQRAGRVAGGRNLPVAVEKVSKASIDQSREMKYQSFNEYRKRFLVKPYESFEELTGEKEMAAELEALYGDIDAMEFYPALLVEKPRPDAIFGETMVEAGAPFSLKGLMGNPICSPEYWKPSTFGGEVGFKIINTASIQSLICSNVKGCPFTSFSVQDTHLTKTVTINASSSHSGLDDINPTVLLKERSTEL
Experimental: as §2

[5] = system: swine influenza virus (SIV)-induced fever; assay type: in vivo
[6] = Hydrolysis in swine liver microsomes; assay type: in vitro ADME
[7] = Hydrolysis in swine plasma; assay type: in vitro ADME
[8] = system: bradykinin; details: Julou 1976; cited from earlier work
[9] = system: LPS-induced lameness; test: LPS-induced swine synovitis model; assay type: in vivo; details: validation study, 2.2 mg/kg, IM
[10] = read-out: COX-2 IC50, LPS-treated porcine alveolar macrophages, PGE2 by ELISA, 21-24 hours incubation
[11] = read-out: COX-1 IC50, LPS-treated porcine alveolar macrophages, TXB2 by ELISA, 21-24 hours incubation
[12] = LPS-treated porcine alveolar macrophages, PGE2 by ELISA, 21-24 hours incubation, read-out: COX-2 IC50
[13] = LPS-treated porcine alveolar macrophages, PGE2 by ELISA, 21-24 hours incubation
[14] = LPS-treated porcine alveolar macrophages, TXB2 by ELISA, 21-24 hours incubation, read-out: COX-1 IC50
[15] = LPS-treated porcine alveolar macrophages, TXB2 by ELISA, 21-24 hours incubation

Sequence of swine COX-2 (Q8SPR3 entry or part of it): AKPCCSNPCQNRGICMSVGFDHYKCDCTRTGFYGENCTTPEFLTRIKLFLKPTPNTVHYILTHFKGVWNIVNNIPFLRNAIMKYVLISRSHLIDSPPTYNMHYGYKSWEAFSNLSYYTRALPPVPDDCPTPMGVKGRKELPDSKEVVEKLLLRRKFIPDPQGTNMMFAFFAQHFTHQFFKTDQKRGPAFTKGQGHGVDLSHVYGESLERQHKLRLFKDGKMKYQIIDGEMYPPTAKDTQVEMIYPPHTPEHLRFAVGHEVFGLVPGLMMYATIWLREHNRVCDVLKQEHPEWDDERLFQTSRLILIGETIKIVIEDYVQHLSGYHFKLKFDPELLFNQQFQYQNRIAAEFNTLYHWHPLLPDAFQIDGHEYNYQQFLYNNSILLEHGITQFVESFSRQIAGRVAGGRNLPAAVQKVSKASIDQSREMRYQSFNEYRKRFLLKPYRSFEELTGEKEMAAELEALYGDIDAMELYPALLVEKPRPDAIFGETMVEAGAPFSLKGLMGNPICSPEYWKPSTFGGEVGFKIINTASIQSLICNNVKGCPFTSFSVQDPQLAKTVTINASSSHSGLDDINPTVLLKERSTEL

COC(=O)C(C)c1cccc(C(=O)c2ccccc2)c1 (stereo not shown) [Formula 1, methyl 2-(3-benzoylphenyl)propanoate]
IC50 [1, 10]: 130 nM | IC90 [1]: 840 nM | potency relative to Meloxicam ([1]; swine COX, Table 1): about 5 times | IC50 [2, 11]: 260 nM | IC90 [2]: 1680 nM | IC50 [3]: 500 nM | IC90 ([3]; read-out: IC90 COX-1): 3100 nM | IC50 [4]: 290 nM | IC90 ([4]; read-out: IC90 COX-2): 2290 nM | anti-pyretic activity continues through (post-dose) ([5]; 6 mg/kg IM in Miglyol 812): ≥ 72 h | activity compared with vehicle at t=35 hours (11 hours post-dose) ([5]; Formula 1 4, 5, 6 mg/kg IM, Banamine 2.2 mg/kg IM): remained active | fever reduction compared with vehicle ([5]; young gilts, in Miglyol 812, 4, 5, 6 mg/kg IM, 24 hours after SIV, all timepoints from 1 hour post-dose): significantly reduced fever | onset of anti-pyretic efficacy post-dose ([5]; young gilts, in Miglyol 812, 4, 5 and 6 mg/kg IM): 1 h | hydrolysis in swine liver microsomes [6]: hydrolyzed rapidly | hydrolysis in swine plasma [7]: moderately or slowly

C[C@H](C(=O)O)c1cccc(C(=O)c2ccccc2)c1 (single isomer, unassigned) [Ketoprofen (S)-enantiomer]
IC50 [1, 12]: 1 nM | IC90 [1, 13]: 40 nM | IC50 [2, 14]: 2 nM | IC90 [2, 15]: 60 nM

CC(C(=O)O)c1ccc2c(c1)[nH]c1ccc(Cl)cc12 (stereo not shown) [Carprofen]
IC50 [1, 10]: 3170 nM | IC90 [1]: 39000 nM | IC50 [2, 14]: 5060 nM | IC90 [2]: 58400 nM

CC(C(=O)O)c1cccc(C(=O)c2ccccc2)c1 (racemic) [Ketoprofen, 2-(3-benzoylphenyl)-propionic acid]
IC50 [1, 10]: 6 nM | IC90 [1]: 80 nM | IC50 ([1]; read-out: IC50 against swine ortholog of COX-2, one range given for COX-1 and COX-2): 6 to 7 nM | IC50 [2, 11]: 7 nM | IC90 [2]: 80 nM | IC50 ([2]; read-out: IC50 against swine ortholog of COX-1, one range given for COX-1 and COX-2): 6 to 7 nM | IC50 [3]: 30 nM | IC50 ([4]; read-out: IC50 against bovine COX-2): 220 nM | functional bradykinin antagonist activity, effects greater than indomethacin [8]: 8 times

CC(C(=O)OCCNC(=O)c1cccnc1)c1cccc(C(=O)c2ccccc2)c1 (stereo not shown) [Formula 3, 2-(nicotinamido)ethyl 2-(3-benzoylphenyl)propanoate]
IC50 [1, 10]: 120 nM | IC90 [1]: 930 nM | IC50 [2, 11]: 150 nM | IC90 [2]: 4860 nM | hydrolysis in swine liver microsomes [6]: hydrolyzed rapidly | hydrolysis in swine plasma [7]: moderately or slowly

Cc1c(Nc2ncccc2C(=O)O)cccc1C(F)(F)F [Flunixin]
IC50 [1, 12]: 33 nM | IC90 [1, 13]: 507 nM | IC90 [2, 15]: 747 nM | IC50 [2, 11]: 66 nM | reduction of LPS-induced lameness [9]: effective at reducing LPS-induced lameness

CCOC(=O)C(C)c1cccc(C(=O)c2ccccc2)c1 (stereo not shown) [Formula 2, ethyl 2-(3-benzoylphenyl)propanoate]
hydrolysis in swine liver microsomes [6]: hydrolyzed rapidly | hydrolysis in swine plasma [7]: moderately or slowly

Cc1cnc(NC(=O)C2=C(O)c3ccccc3S(=O)(=O)N2C)s1 [Meloxicam]
IC50 [1, 10]: 560 nM | IC90 [1]: 9000 nM | IC50 [2, 14]: 1020 nM | IC90 [2]: 49300 nM
